“And” between values parts separate entries of the source, which are not always exact repeats. Equal entries are not always repeated. Where two headings read alike, the source gives them in different places.
What was measured:
[1] = biological target: T1, Escherichia coli glutaminyl-tRNA synthetase (GlnRS) (Escherichia coli, UniProt P00962); type: biochemical; settings: 3′-dATP versus ATP
Target sequence in this assay (P00962 2-554): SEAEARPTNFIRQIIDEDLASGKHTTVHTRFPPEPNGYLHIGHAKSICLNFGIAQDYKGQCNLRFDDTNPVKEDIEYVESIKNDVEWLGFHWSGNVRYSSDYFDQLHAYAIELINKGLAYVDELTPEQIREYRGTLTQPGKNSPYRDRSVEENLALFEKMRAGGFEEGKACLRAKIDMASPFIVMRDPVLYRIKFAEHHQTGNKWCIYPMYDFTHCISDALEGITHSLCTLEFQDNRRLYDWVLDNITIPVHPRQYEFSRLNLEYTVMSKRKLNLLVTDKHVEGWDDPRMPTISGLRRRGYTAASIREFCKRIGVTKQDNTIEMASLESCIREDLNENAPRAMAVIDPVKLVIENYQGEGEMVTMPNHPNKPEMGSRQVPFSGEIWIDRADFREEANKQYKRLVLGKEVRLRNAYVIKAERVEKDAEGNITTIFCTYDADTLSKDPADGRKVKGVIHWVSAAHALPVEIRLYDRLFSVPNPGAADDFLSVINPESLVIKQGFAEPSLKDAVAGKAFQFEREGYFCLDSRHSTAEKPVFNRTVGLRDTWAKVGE

[2] = biological target: T1, Escherichia coli glutaminyl-tRNA synthetase (GlnRS); test: Misacylation of tRNA^Gln with glutamate; type: biochemical; settings: very high glutamate concentrations, single-turnover conditions
Target sequence in this assay (P00962 whole entry): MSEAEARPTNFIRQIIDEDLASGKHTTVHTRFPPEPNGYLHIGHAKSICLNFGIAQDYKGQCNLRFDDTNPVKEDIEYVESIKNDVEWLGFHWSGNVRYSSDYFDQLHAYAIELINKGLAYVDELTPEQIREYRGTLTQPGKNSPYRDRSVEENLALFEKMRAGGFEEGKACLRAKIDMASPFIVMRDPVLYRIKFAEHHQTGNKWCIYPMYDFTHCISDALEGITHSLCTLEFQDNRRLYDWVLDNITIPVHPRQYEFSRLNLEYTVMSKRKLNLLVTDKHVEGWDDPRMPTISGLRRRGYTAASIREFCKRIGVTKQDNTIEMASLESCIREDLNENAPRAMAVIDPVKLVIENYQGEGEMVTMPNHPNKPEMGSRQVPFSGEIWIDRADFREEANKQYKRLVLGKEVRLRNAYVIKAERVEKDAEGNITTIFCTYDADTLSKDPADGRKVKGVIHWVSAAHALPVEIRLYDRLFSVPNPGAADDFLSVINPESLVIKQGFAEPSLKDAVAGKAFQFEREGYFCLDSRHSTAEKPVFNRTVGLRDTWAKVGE

[3] = biological target: T1, Escherichia coli glutaminyl-tRNA synthetase (GlnRS); type: biochemical
Target sequence in this assay (P00962 2-554): as the sequence (P00962 2-554) above

[4] = biological target: T1, Escherichia coli glutaminyl-tRNA synthetase (GlnRS); settings: wild-type GlnRS, cited from earlier work
Target sequence in this assay (P00962 2-554): as above

3′-dATP
fold diminution of kobs from wild-type (ATP) reaction [1]: 47 fold
misacylation of tRNA^Gln with glutamate using 3′-dATP [2]: unable to detect any reaction
fold diminution of kcat from wild-type (ATP) reaction ([3]; 3′-dATP versus ATP): 70 fold and 71 fold
fold elevation of Km (ATP/3′-dATP) from wild-type (ATP) reaction ([3]; 3′-dATP versus ATP): 2 fold
fold elevation of Km (GLN) from wild-type (ATP) reaction ([3]; 3′-dATP versus ATP): 16 fold
Km ([3]; read-out: Km (ATP/3′-dATP), wild-type GlnRS, Km for 3′-dATP): 410 ± 30 µM
kcat ([3]; wild-type GlnRS, 3′-dATP in place of ATP, 50 nM enzyme, 12.5 μM tRNA, 37 °C): 0.045 ± 0.02 s⁻¹

Nc1ncnc2c1ncn2[C@@H]1O[C@H](COP(=O)(O)OP(=O)(O)OP(=O)(O)O)[C@@H](O)[C@H]1O [ATP]
Km ([4]; read-out: Km (ATP/3′-dATP), Km for ATP): 200 ± 20 µM
kcat ([4]; ATP-mediated glutaminylation, 37 °C): 3.2 ± 0.5 s⁻¹
